Source: US20160160189A1, “Truncated Constructs of RIPK3 and Related Uses” (ST. JUDE CHILDREN'S RESEARCH HOSPITAL, priority 2013, published 2016)
Peptide text beside a SMILES is read from it. * marks the point of attachment. Cbz = O=C(OCc1ccccc1)*; CH2F = FC*

Experiments:
Type in all cases: cell-based, murine
[1] = test system: RIPK3 necrosome complex (RIPK1, caspase-8); assay: Anti-FLAG immunoprecipitation of necrosome complexes; conditions: RIPK3-1xFv, AP1 30 minutes; zVAD 50 μM, Nec1 30 μM
Description: Immunoprecipitation of necrosome complexes were carried out using rabbit anti-FLAG antibodies, and TruBlot IP reagents (Rockland Immunochemicals) to eliminate non-specific signals from immunoglobulin heavy and light chains. Briefly, cell lines were treated as indicated and lysed in NP40 buffer (30 mM Tris, 150 mM NaCl, and 1% NP40) supplemented with protease inhibitors. Twenty micrograms of each sample were reserved for “input,” while 500 μg of total protein from each sample were immunoprecipitated with 0.5 μg antibody conjugated to 30 μL TruBlot anti-Rabbit IgG beads Immunocomplexes were washed 4 times in NP40 buffer, eluted by boiling, then run on western blot. Western blots were analyzed using standard primary antibodies, but TruBlot anti-Rabbit and anti-Mouse HRP-conjugated 14 secondary antibodies were used. A standard anti-Rat-HRP secondary was used to detect caspase-8.

RIPK3 complexes = assay: DSS crosslinking of necrosome complexes resolved by western blotting; conditions: 30 nM AP1; zVAD 50 μM, Nec1 30 μM
Description: A confluent monolayer of the indicated cells was incubated with the appropriate treatment for 30 minutes at 37 degrees. Cells were lysed in a modified, Tris-free NP40 buffer (30 mM HEPES pH 7.4, 150 mM NaCl, and 1% NP40) without protease inhibitors. Protein lysate was quantified according to standard BCA assay (Pierce) and fifty micrograms of each sample was treated with 0.1 mM DSS crosslinking agent (Thermo Scientific, #21658) for 30 minutes at room temperature; the reaction was quenched by the addition of Tris-HCl pH 7.2 to a final concentration of 50 mM for 15 minutes. Crosslinked samples were analyzed by Western blot as described above, using the anti-2A primary antibody for detection.

[2] = test system: NIH-3T3 cells stably expressing RIPK3-1xFv; assay: AP1-induced RIPK3 dimerization cell death, IncuCyte imaging; conditions: for effect on AP1 (RIPK3 dimerization)-induced cell death: 30 nM AP1, zVAD 50 μM, Nec1 30 μM, TNFR-Fc 200 ng/ml, siRNA 72 h before
From the text: Fv domains rapidly dimerize in response to AP1 treatment that facilitated an investigation of the protein-protein interactions involved in RIPK3 activation and necroptosis (27a). For example, an Fv domain was appended to a C-terminus of RIPK3, that is adjacent to the RHIM domain, in an effort to mimic in situ RHIM-dependent interactions that define RIPK3 activation. RIPK3-1xFv was expressed in NIH-3T3 cells, a cell line that lacks endogenous RIPK3 expression and is therefore unresponsive to TNF-induced necroptosis. See, FIGS. 13A and 13B. Cell death responses of NIH-3T3 cells were quantified by construct expression over time using the IncuCyte imaging system, which allows precise quantification of cell death with high temporal resolution. For example, representative images were acquired from an IncuCyte Imager (data not shown). These images were NIH-3T3 cells stably expressing RIPK3-1xFV, treated with 10 nM AP1 (see FIG. 1B for a quantified graphical representation of this cell death). One set of images show a field of these cells undergoing RIPK3-dependent cell death; the media contains the cell impermeable DNA binding dye Sytox Green, which marks cells that have lost membrane integrity in green. Another set of images depicts the same image set, following analysis by the IncuCyte software package. This software counts each green (dead) cell in each image; counted cells are surrounded by purple halos. Each trace shown in this manuscript depicts data averaged from at least 3 independently treated wells of cells, each of which is imaged in at least 4 separate fields. Each experiment shown is representative of at least 3 separate replicates. All experiments on stably transduced cells is representative of at least three separate replicates performed on each of at least two distinct, independently-derived stable lines.
In the examples below, the following compounds were used: Recombinant murine TNF (Peprotech 315-01A) was used at 1 ng/ml unless otherwise specified; AP1 (Now commercialized by Clontech as “B/B Homodimerizer,” catalog #635059) was dissolved in ethanol to a concentration of 100 μM, then diluted in culture media to a final concentration of 30 nM unless otherwise indicated. zVAD (SM 13 Biochemicals SMFMK001) was dissolved in DMSO to a concentration of 50 mM, then diluted to 50 μM in culture media; Necrostatin-1(Sigma N9037-10MG) was dissolved in DMSO to a concentration of 30 mM, then diluted to 30 μM in culture media; TNFR-Fc (Fisher 430-RI-050) was used at a final concentration of 200 ng/ml; Shield drug was a kind gift of Dr. Tom Wandless and was used at a final concentration of 1 μM. SiGenome SMARTpool siRNAs were purchased from Dharmacon/Fisher. Pools targeting murine MLKL(M-061420-01), murine RIPK1 (M-040150-01), and murine caspase-8 (M-043044-01), as well as a non-targeting “scramble” pool(D-001206-14), were used. Two microliters of a 50 μM stock of these siRNAs were delivered to cells in 6-well format using Lipofectamine siRNA-Max reagent (Life Technologies 13778150) according to the manufacturer's instructions. Forty-eight hours later, these cells were re-plated into 24-well format for cell death assays, or harvested for western blot analysis of knockdowns.
These constructs were transduced into NIH-3T3 cells using standard protocols for helper-dependent retroviral transduction. Transduced cells were selected for 5 days in 1 μg/ml puromycin, then grown to confluence and sorted twice for homogenous GFP expression. […]

SMILES	effect of inhibitor on association of RIPK1 and caspase-8 with the RIPK3 complex [1]	effect of inhibitor on RIPK3 complexes following RIPK3-1xFv dimerization (RIPK3 complexes)	effect on AP1 (RIPK3 dimerization)-induced cell death [2]	effect on AP1 (RIPK3 dimerization)-induced cell death ([2]; listed as Nec1)	inhibitory effects of Nec1 on RIPK3 oligomerization upon knockdown of RIPK1 ([2]; RIPK1 siRNA, 30 nM AP1, 30 μM Nec1)
COC(=O)C[C@H](NC(=O)[C@H](C)NC(=O)[C@@H](NC(=O)OCc1ccccc1)C(C)C)C(=O)CF [zVAD] (Cbz-Val-Ala-Asp(OMe)-CH2F)	increased association of these proteins	increased shift of RIPK3 into higher molecular weight complexes	notably increased the rate and magnitude of necroptosis	–	–
CN1C(=O)C(Cc2c[nH]c3ccccc23)NC1=S (centres unmarked) [necrostatin-1, Necrostatin-1]	eliminated formation of stable RIPK1- and caspase-8 containing complexes	diminished the appearance of these complexes	suppressed	blocked	abrogated
